Converted amounts (≈) assume the structure as drawn. The source made the active and inactive calls. The calls are words filed in the database; no cut-off is given here.
Assays:
[1] = tested on: P388; test: In vivo antitumor activity against mouse P388 cells at 5 to 200 mg/kg; type: functional, organism-based
[2] = tested on: P388; test: Cytotoxicity against mouse P388 cells; type: functional; details: read-out: ED50 (the source's name)
[3] = tested on: P388; test: In vivo antitumor activity against mouse P388 cells at 1.25 to 10 mg/kg; type: functional, organism-based
[4] = tested on: P388; test: In vivo antitumor activity against mouse P388 cells at 20 mg/kg; type: functional
[5] = tested on: P388; test: In vivo antitumor activity against mouse P388 cells at 10 mg/kg; type: functional
[6] = tested on: P388; test: In vivo antitumor activity against mouse P388 cells at 75 mg/kg; type: functional

For `CC(=O)O[C@@H]1CC=C2CCN3Cc4cc5c(cc4[C@H]1[C@@H]23)OCO5` [ACETYLCARANINE], which Activity [1] is on record?
The Activity was “inactive”.

And the EC50 [2]?
Its EC50 is 0.23 µg/mL (≈ 0.734 µM).

Which results are given for `COc1c2c(cc3c1OCO3)[C@]13C=C[C@H](OC)C[C@H]1N(C2)C[C@@H]3O` [AMBELLINE]?
EC50 [2]: 1.6 µg/mL (≈ 4.83 µM); Activity [3]: inactive

How did the T/C [4] turn out when `[Cl-].c1cc2c3c(c1)c1cc4c(cc1c[n+]3CC2)OCO4` [ANHYDROLYCORINIUM CHLORIDE] was run?
The T/C was 169%.

And the T/C [5]?
The T/C was 164%.

With `O[C@H]1[C@H]2c3cc4c(cc3CN3CCC(=C[C@@H]1O)[C@H]23)OCO4` [LYCORINE] as the compound, how does the T/C [6] read?
The T/C was 135%.

— ChEMBL document CHEMBL1151627, “Antineoplastic agents, 99. Amaryllis belladonna” (1984)
